Source: patent publication US9358229B2, “JAK PI3K/mTOR combination therapy” (Novartis Pharma AG, priority 2011, dated 2016)
Where two headings read alike, the source gives them in different places.

Tests used:
[1] = tested on: CD34+ cells of MF pts; test: Proliferation of CD34+ cells of MF patients; assay type: cell-based; settings: Homo sapiens
Experimental: (§1) Mouse (Ba/F3 and Ba/F3-EPOR wild-type or expressing JAK2V617F(VF)) and human (JAK2VF mutated HEL and SET2) cell lines and primary MPN CD34+ cells from patients with myelofibrosis (MF) or polycythemia vera (PV) were used; BCR/ABL mutated K562 cells were used in some experiments. Cell proliferation, colony formation, apoptosis, cell cycle and protein phosphorylation status were evaluated. Effects of drug combination were analyzed according to Chou and Talalay to calculate the combination index (CI); a CI<1.0 indicates synergistic activity.
(§2) Then, the activity of RAD001 and Compound A was analyzed in primary cells from MPN patients.

[2] = tested on: JAK2V617F-mutated HEL cells; test: Cell proliferation and colony formation in HEL cells; assay type: cell-based; settings: Homo sapiens
Experimental: as §1

[3] = tested on: Ba/F3-EPOR JAK2 wild-type (wt) cells; test: Cell proliferation in Ba/F3-EPOR JAK2 wild-type cells; assay type: cell-based; settings: Mus musculus, read-out: IC50, cell proliferation
Experimental: as §1

[4] = tested on: BaF3 JAK2V617F-luc+ cells; test: SCID BaF3 JAK2V617F-luciferase mouse model; assay type: in vivo; settings: daily per os, 60 mpk Compound B, 45 mpk Compound A
Experimental: To ascertain the effects of drugs targeting PI3K/Akt/mTOR pathway alone and in combination with JAK2 inhibitor in a murine model of myeloproliferative neoplasms, a SCID BaF3 JAK2^V617F-luciferase mouse model was used. […] Female SCID mice (4-6 weeks of age; Harlan) were fed rodent standard chow and provided with water ad libitum. Mice were given 3×10^6 JAK2^V617F-luc+ cells by tail vein injection. Mice were injected with D-luciferin before imaging to detect a bioluminescence signal that is proportional to the clone burden. Baseline imaging was performed using a Photon Imager (Biospace Lab) apparatus to establish bioluminescence on day 6 after cell injection. […] Drugs treatment was administered daily per os (by mouth). Imaging was performed on day 7, 14, 21, and 28 after the first drug dose. Mice were followed daily for survival and humanely sacrificed when they developed hind limb paralysis or became moribund and considered deceased at the time at which they were sacrificed.

[5] = tested on: JAK2V617F mutated patients cells; test: Single-colony genotyping in JAK2V617F mutated patients cells; assay type: cell-based, human; settings: n=7
Experimental: as §2

[6] = tested on: cell lines (Ba/F3, Ba/F3-EPOR, HEL, SET2); test: Apoptosis (Annexin-V) in cell lines; assay type: cell-based; settings: at maximum / highest concentrations
Experimental: as §1

[7] = tested on: JAK2V617F-mutated SET2 cells; test: Cell proliferation and colony formation in SET2 cells; assay type: cell-based; settings: Homo sapiens, SET-2
[8] = tested on: Ba/F3-EPOR JAK2V617F-mutated cells; test: Cell proliferation in Ba/F3-EPOR JAK2V617F-mutated cells; assay type: cell-based; settings: Mus musculus, read-out: IC50, cell proliferation
Experimental: as §1

[9] = tested on: CD34+ cells of healthy donors; test: Proliferation of CD34+ cells of healthy donors; assay type: cell-based; settings: Homo sapiens
[10] = tested on: BCR/ABL mutated K562 cells; test: Cell proliferation in K562 cells; assay type: cell-based; settings: Homo sapiens
Experimental: as §1

[11] = tested on: EPO-independent colonies (EEC) of PV patients cells; test: Erythropoietin-independent colony (EEC) assay; assay type: cell-based, human; settings: for prevention of erythropoietin-independent colony (EEC) formation: primary cells from MPN patients
Experimental: as §1, §2

[12] = tested on: JAK2 V617F Knock-in (KI) mouse; test: C57B16/J JAK2 V617F Knock-in (KI) mouse model; assay type: in vivo; settings: KI mice treated for 5 days
Experimental: Mice were treated for 5 days, then blood, spleen and bone marrow cells were obtained for further analysis.

Row | IC50 ([3]; Ba/F3-EPOR JAK2 wild-type cells) [nM] | IC50 ([8]; Ba/F3-EPOR JAK2V617F-mutated cells) [nM] | Compound | IC50 [1] [nM] | IC50 [2] [nM] | IC50 [3] [nM] | MEAN LIFESPAN [4] [days] | LIFESPAN INCREASE (%) VS VEHICLE [4] [%] | reduction of VF in favor of wild-type colonies ([5]; mean) [%] | reduction of VF in favor of wild-type colonies, range ([5]; range) | apoptosis / Annexin-V +ve cells [6] | IC50 [7] [nM] | IC50 [8] [nM] | IC50 [9] [nM] | IC50 [10] [nM] | IC50 ([11]; Homo sapiens, PV patients cells, read-out: IC50, growth of EPO-independent colonies (EEC)) [nM] | prevention of erythropoietin-independent colony (EEC) formation [11] | median spleen index (ratio of spleen weight to body weight×100) [12] | reticulocyte count median [12] [No. per HPF]
1 | – | – | Cn1c(=O)n(-c2ccc(C(C)(C)C#N)cc2)c2c3cc(-c4cnc5ccccc5c4)ccc3ncc21 [Compound A, 2-methyl-2-[4-(3-methyl-2-oxo-8-quinolin-3-yl-2,3-dihydro-imidazo[4,5-c]quinolin-1-yl)-phenyl]-propionitrile] | 43 ± 20 | 387 ± 90 | 676 ± 200 | 24 | 42 | 40±16 | 18-71% | 30-40% | 334 ± 40 | 87 ± 50 | 780 ± 150 | 5000 | 20 ± 10 | low nM range | 35 | 50
2 | – | – | N#CC[C@H](C1CCCC1)n1cc(-c2ncnc3[nH]ccc23)cn1 [Compound B, (3R)-3-cyclopentyl-3-[4-(7H-pyrrolo[2,3-d]pyrimidin-4-yl)-1H-pyrazol-1-yl]propanenitrile] | – | – | – | 19 | 19 | – | – | – | – | – | – | – | – | – | – | 44
3 | > 10000 | 615 ± 50 | CO[C@H]1C[C@@H]2CC[C@@H](C)[C@@](O)(O2)C(=O)C(=O)N2CCCC[C@H]2C(=O)O[C@H]([C@H](C)C[C@@H]2CC[C@@H](OCCO)[C@H](OC)C2)CC(=O)[C@H](C)/C=C(\C)[C@@H](O)[C@@H](OC)C(=O)[C@H](C)C[C@H](C)/C=C/C=C/C=C/1C [RAD001, reference compound] | – | – | – | – | – | – | – | – | – | – | – | – | – | low nM range | – | –
